In the METLIN SMRT retention time set (Domingo-Almenara et al. 2019):

Test: gradient 5% acetonitrile 3 min, to 50% in 2 min, to 85% in 15 min, held 3 min, 100 µL/min
Conditions: column: Zorbax Extend-C18 2.1 x 50 mm; eluents: water / acetonitrile, 0.1% formic acid
Outline: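 Retention time was recorded from adduct peaks, which were picked computationally and each inspected manually. Pure standards ran in mixtures of ~100 molecules on HPLC coupled to a quadrupole time-of-flight mass spectrometer, in positive and negative ionization mode, through a Zorbax Extend-C18 column (2.1 × 50 mm, 1.8 μm) at 100 μL/min. Eluents were water and acetonitrile, each with 0.1% formic acid.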

| Compound | RP-LC retention time [s] |
| --- | --- |
| CCc1ccc(Oc2cc(N3CCC(C(=O)NCc4ccc(OC)cc4)CC3)ncn2)cc1 | 988 |
| CCn1c(=O)c2ccccc2n(Cc2nc(-c3ccccc3C)no2)c1=O | 1070 |
| CCCS(=O)(=O)c1nc2ccc(NS(=O)(=O)c3cc(C)c(C)cc3C)cc2s1 | 1040 |
| COc1ccc(-c2cc3n(n2)C(NCc2cccs2)CNC3=O)cc1 (configuration not stated) | 825 |
| COc1cccc(CC(=O)NC2CCN(c3cc(-c4cccs4)[nH]n3)C2)c1 (configuration not stated) | 658 |
| O=C(CCCc1c[nH]c2ccccc12)NCCc1c[nH]c2ccccc12 | 830 |
| COC(=O)c1cccc(C(=O)NC2CCN(C(=O)c3cc(-c4cccs4)[nH]n3)CC2)c1 | 733 |
| Cc1ccc(CN2CCN(C3CCN(C(=O)Nc4ccc(F)c(Cl)c4)CC3)C(=O)C2=O)cc1 | 849 |
| O=C(NCCC1CCN(C(=O)Nc2ccc(F)cc2F)CC1)c1ccsc1 | 757 |
| COc1ccc(CNC(=O)Nc2c(-c3cccc(C)c3)nc3ccccn23)cc1 | 651 |
| O=C1COc2ccccc2N1Cc1nc(-c2ccccc2)no1 | 971 |
| CC1CCC(N2CC(=O)N(CCN3CCOCC3)C(c3cccnc3)C2=O)CC1 (configuration not stated) | 548 |
| Cc1ncoc1C(=O)NCC1Cn2cccc2C(=O)N1CC(C)C (configuration not stated) | 647 |
| Cn1cccc1C(=O)Nc1cnn(-c2ncc(N3CCSCC3)cn2)c1 | 768 |
| Cc1csc(NC(=O)c2sc3nc(-c4cccc([N+](=O)[O-])c4)cn3c2C)n1 | 800 |
| COc1ccc(-c2noc(C3CCCN3C(=O)c3cccnc3)n2)cc1 (configuration not stated) | 725 |
| COCC(=O)NC1CCC12CCN(C(=O)C1CCC1)CC2 (configuration not stated) | 661 |
| Cc1ccc(NC(=O)Cn2c(=O)c(CCC(=O)NC3CCCC3)nc3ccccc32)cc1C | 863 |
| NS(=O)(=O)c1ccc(CCNC(=O)C(=O)Nc2ccc(Cl)cn2)cc1 | 695 |
| CC1CCN(S(=O)(=O)c2nn(C)cc2C(=O)NCCc2cccs2)CC1 | 952 |
| Cc1cccc(CNC(=O)CN2CCN(Cc3ccccc3)C2=O)c1 | 808 |
| O=C(CC1CCN(C(=O)Nc2ccc(Br)cc2F)CC1)N1CCCCC1 | 835 |
| Cc1nn(C(C)C(=O)NCCCN2CCCC2=O)c(=O)c2nn(-c3ccccc3)c(C)c12 (configuration not stated) | 648 |
| CCCS(=O)(=O)N1CC(F)(F)C[C@H]1c1nc(-c2cccnc2)no1 | 802 |

| Compound | RP-LC retention time [s] |
| --- | --- |
| CC(C)S(=O)(=O)c1ccc(CC(=O)Nc2cc(-c3cccs3)nn2CCO)cc1 | 701 |
| Cc1c(-c2ccnc(N3CCN(C)CC3)n2)cnc2nc(-c3cccs3)nn12 | 601 |
| CCc1nc2c(c(=O)n1CC(=O)Nc1ccc(C(C)C)cc1)CN(Cc1ccccc1)CC2 | 753 |
| COc1ccccc1NC(=O)NCCCn1c(C(F)(F)F)nc2cccnc21 | 797 |
| Cc1cc(C)c2c(N3CCCCC3)nc(C(=O)NC(C)c3cccnc3)nc2n1 (configuration not stated) | 568 |
| CCC(=O)N1CCC2(CC1)NCc1ccccc1-n1ccnc12 | 562 |
| COc1ccc(OCc2noc(CNC(=O)c3cnn(-c4ccccc4)c3C)n2)cc1 | 799 |
| Cc1cc(N)n(-c2nc(C)nc3sc4c(c23)CCC(C)C4)n1 (configuration not stated) | 857 |
| COc1ccc(NC(=O)C2CCN(S(=O)(=O)c3cn(C(C)C)cn3)CC2)cc1 | 711 |
| O=C(Cn1nc2c(cc1=O)CCCC2)Nc1ccc(N2CCCS2(=O)=O)cc1 | 668 |
| COc1ccc(CNC(=O)Cn2ncc3c(c2=O)N(C2CC2)C(=O)CS3)cc1 | 667 |
| CCC(=O)Oc1ccc(N(C)C2=NS(=O)(=O)c3ccccc32)cc1 | 859 |
| COCCNC(=O)c1cc2c(s1)N(C)CCC2 | 703 |
| COc1ccc(-c2csc(NC(=O)CS(=O)(=O)c3ccc(C)cc3)n2)c(OC)c1 | 1010 |
| Cc1c(Cl)ccc2c(=O)c3c([nH]c12)CCN(CC(=O)Nc1cc(F)cc(F)c1)C3 | 664 |
| O=C(NCC1CCCO1)C1CCN(C(=O)c2ncn3c2COC(c2ccccc2)C3)CC1 (configuration not stated) | 649 |
| COc1ccc(OC)c(C(O)CN2CCN(c3cccc(C)c3)CC2)c1 (configuration not stated) | 712 |
| COC(=O)c1ncn2c1C(=O)N(Cc1ccc(Cl)cc1)C(C)(C(=O)NC1CCCCC1)C2 (configuration not stated) | 798 |
| O=C(NCc1cccs1)C(=O)NCC1(c2cccs2)CC1 | 860 |
| COc1ccccc1NC(=O)Cn1nc2cc(C)nc(Nc3ccccc3)n2c1=O | 1020 |
| CCCS(=O)(=O)N1CCC(OCCOc2cccnc2)CC1 | 581 |
| COc1ccc2c(c1)c(CN1CCC(N3C[C@H](OC)[C@@H]3c3cccnc3)CC1)cn2C | 579 |
| COc1ccc(-c2nc(CCS(=O)(=O)c3ccc(Cl)cc3)no2)cc1OC | 946 |

Results, then the molecule that gave them:

| RP-LC retention time [s] | Compound |
| --- | --- |
| 566 | CCS(=O)(=O)N1CCCN(C(=O)NC)CC1 |
| 822 | CC(=O)c1ccc(NS(=O)(=O)c2ccc3ccccc3c2)cc1 |
| 980 | O=S(=O)(c1cccc(-c2nnc(SC/C=C/c3ccccc3)o2)c1)N1CCOCC1 |
| 953 | CCc1nc(N2CCc3ccccc3C2)ncc1C(=O)O |
| 597 | COC(=O)C1=C(CN2CCN(C)CC2)NC(=O)NC1c1ccccc1Cl (configuration not stated) |
| 668 | CCNS(=O)(=O)c1cc(-c2c(CC)noc2NC(C)=O)ccc1OC |
| 974 | CCc1ccc(NC(=O)CSc2cc(N3CCCCC3)ncn2)cc1 |
| 697 | Cc1ccc2nc(-c3ccccc3)c(Nc3ccc4c(c3)OCCO4)n2c1 |
| 1300 | O=C(Nc1ccc(F)cc1Cl)c1c(O)c2cccnc2n(-c2cccc(F)c2)c1=O |
| 783 | CN1CCCCCCN(S(=O)(=O)c2cccc3nsnc23)CCC1=O |
| 611 | Cn1nc2n(c1=O)CCN(C(=O)Cc1ccsc1)CC2 |
| 780 | CC1CCCC(C)N1C(=O)CSc1nnc(-c2ccc3c(c2)OCCCO3)n1C (configuration not stated) |
| 621 | CC1CCCCN1CCNC(=O)CCCn1c(=O)c2cccn2c2ccccc21 (configuration not stated) |
| 660 | CCOc1ccc2ncc(S(=O)(=O)c3ccc(OC)cc3)c(N3CCN(CC)CC3)c2c1 |
| 1070 | Cc1ccc(C)c(NC(=O)C2CCN(S(=O)(=O)c3ccc4c(c3)sc(=O)n4C(C)C)CC2)c1 |
| 829 | CO[C@H]1C(=O)N(C(C)C)[C@H]1C1CCN(S(=O)(=O)Cc2ccccc2)CC1 |
| 946 | COc1ccc(-n2nc(-c3nc(-c4ccccn4)no3)c3ccccc3c2=O)cc1 |
| 1090 | O=C1CCCCC1Oc1cc(O)c2c(=O)cc(-c3ccccc3)oc2c1 (configuration not stated) |
| 680 | CCc1ccc(CNC(=O)c2ccc3[nH]c4c(c3c2)CN(C(C)=O)CC4)cc1 |
| 1320 | O=C(N1CC(Oc2ccc(-c3noc(-c4ccccc4)n3)cc2)C1)C1(c2ccccc2)CC1 |
